# Earlier results, collected in article PMC7489895 (Biochemical Journal, 2020).
# Key:
# human skeletal muscle = conditions: ref Ahn et al. [30]
# MondoA = conditions: skeletal myoblasts, in response to insulin; ref Ahn et al. [30]
# importin α = importin α (Mus musculus, UniProt P52293); conditions: read-out: KD, NLS - importin α
Kd (importin α),Compound,effect on intramuscular lipid accumulation (human skeletal muscle),effect on nuclear localization of MondoA (MondoA)
,COc1ccc(-c2csc(NC(=O)c3ccc(OCC(=O)N4CCOCC4)c(OC)c3)n2)cc1 [SBI-477],inhibits intramuscular lipid accumulation,inhibits the nuclear localization of Mondo A
0.19 ± 0.02 µM,"K^155RPAATKKAGQAKKKK^170 (KRPAATKKAGQAKKKK; NLS; UniProt P05221 155-170, looked up, fragment) [Nucleoplasmin]",,
5 ± 0.1 µM,R^617KCYEAGMTLGARKLKKL^634,,

Compound,Kd (importin α),effect on intramuscular lipid accumulation (human skeletal muscle),effect on nuclear localization of MondoA (MondoA)
P^126KKKRKV^132 [SV40],0.31 ± 0.15 µM,,
